Experimental data published in US20260078135A1, “POLYCYCLIC QUINAZOLINES FOR INHIBITION OF ERBB2” (Enliven Inc., priority 2022, published 2026).

How the values were obtained:
[1] = molecular target: T1, phosphorylated ERBB2 (pERBB2) (Homo sapiens, UniProt P04626); assay: Detection of phosphorylated ERBB2 (pERBB2) by ELISA in BT-474 cells; format: cell-based; settings: four hour incubation
T1 construct: endogenous in cells; host or cells: BT-474
Description: BT-474 cells were seeded into a 96-well at 2.0*10^4 cells/100 μl/well. Compounds were dissolved and serially diluted in DMSO. The compounds were then were added, mixed, and incubated for four hours at 37° C., 5% CO2. Compounds were added using four-fold dilutions at final concentrations ranging from 10 μM to 0.01 nM. Following the four hour incubation with compounds, cell lysates were prepared. Plates were centrifuged for 5 μmin at 3000 RPM, and supernatant was removed from each well. Cells were washed 3 times by resuspension in 150 μl PBS, followed by centrifugation and removal of the supernatant, as above. 100 μl of cell lysis buffer (Boston BioProducts, cat #BP-115D) supplied with 1× complete ULTRA cocktail inhibitor (Thermo ScientificTM, cat #78443) was then added to the washed cells. Cells were incubated with lysis buffer for 1 hour at 4° C., and then stored at -80° C. Enzyme-linked immunosorbent assays (ELISA) were performed to measure phosphorylated ERBB2 levels. […] The next day, plates were washed with PBS+0.05% Tween20 (PBST). 150 μl of 5% BSA blocking solution was added for 1 hour at room temperature, with shaking. Plates were washed with PBST. Cell lysates were thawed and 100 μl of lysate was added to the ELISA plate. The plates were incubated for 2 hours at room temperature, with shaking. ELISA plates were then washed with PBST and 100 μl of an HRP-labeled detection antibody that binds phosphorylated tyrosine (R&D Systems, cat #841913) was added to each well. Plates were incubated for 1 hour at room temperature, with shaking. Plates were then washed with PBST, and 100 μl TMB substrate solution (R&D Systems, cat #DY999) was added. Plate were incubated in the dark for 20 minutes at room temperature. 50 μl of Stop solution (R&D Systems, cat #DY994) (50 μl) was added to each well and mixed. Optical density at 450 nm was read on an EnSpire plate reader (Perkin Elmer). The remaining kinase activity by calculated using the following formula: % Relative activity=100×([…]). The low and high control values (“LC” and “HC”) were generated from lysate from wells without cells or with cells treated with 0.1% DMSO, respectively.

[2] = molecular target: T2, phosphorylated EGFR (pEGFR) (Homo sapiens, UniProt P00533); assay: Detection of phosphorylated EGFR (pEGFR) by AlphaLISA in EGF-stimulated A431 cells; format: cell-based; settings: A431 cells (10% FBS), 4 hours incubation, EGF 30 ng/mL for 10 minutes
T2 construct: performed to measure phosphorylated EGFR levels using A431 cells (10% FBS); endogenous in cells; host or cells: A431
T2 sequence (P00533 25-1210): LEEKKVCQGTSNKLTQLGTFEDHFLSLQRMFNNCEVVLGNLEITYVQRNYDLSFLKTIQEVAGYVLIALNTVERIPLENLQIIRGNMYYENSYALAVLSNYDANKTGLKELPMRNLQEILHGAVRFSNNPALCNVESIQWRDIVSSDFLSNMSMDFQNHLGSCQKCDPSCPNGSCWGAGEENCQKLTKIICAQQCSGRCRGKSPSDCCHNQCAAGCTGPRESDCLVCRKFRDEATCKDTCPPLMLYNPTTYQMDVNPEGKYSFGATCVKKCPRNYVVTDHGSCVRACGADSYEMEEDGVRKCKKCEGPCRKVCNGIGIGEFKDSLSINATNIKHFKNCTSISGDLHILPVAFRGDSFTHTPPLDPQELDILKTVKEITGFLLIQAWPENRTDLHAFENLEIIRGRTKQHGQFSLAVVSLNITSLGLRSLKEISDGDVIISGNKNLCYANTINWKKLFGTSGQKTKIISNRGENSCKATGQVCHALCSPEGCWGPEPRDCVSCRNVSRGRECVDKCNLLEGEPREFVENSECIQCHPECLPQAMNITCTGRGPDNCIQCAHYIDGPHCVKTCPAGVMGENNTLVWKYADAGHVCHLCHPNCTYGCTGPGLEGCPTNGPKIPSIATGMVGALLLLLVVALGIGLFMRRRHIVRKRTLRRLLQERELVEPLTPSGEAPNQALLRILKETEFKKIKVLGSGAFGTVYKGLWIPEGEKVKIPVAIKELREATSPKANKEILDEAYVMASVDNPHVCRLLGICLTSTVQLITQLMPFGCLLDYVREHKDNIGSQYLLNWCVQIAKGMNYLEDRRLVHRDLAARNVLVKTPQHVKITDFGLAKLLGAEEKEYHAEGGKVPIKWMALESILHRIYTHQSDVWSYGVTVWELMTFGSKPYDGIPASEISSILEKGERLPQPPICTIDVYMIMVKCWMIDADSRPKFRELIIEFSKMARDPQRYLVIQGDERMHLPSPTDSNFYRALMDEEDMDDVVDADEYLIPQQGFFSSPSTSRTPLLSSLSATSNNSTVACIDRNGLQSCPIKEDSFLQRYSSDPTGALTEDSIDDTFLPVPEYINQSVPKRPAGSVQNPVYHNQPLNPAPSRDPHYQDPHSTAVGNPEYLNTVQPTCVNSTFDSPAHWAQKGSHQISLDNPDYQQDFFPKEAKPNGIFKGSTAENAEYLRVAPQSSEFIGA
Description: Enzyme-linked immunosorbent assays (ELISA) were performed to measure phosphorylated EGFR levels using A431 cells (10% FBS). A431 (1.0*10^4 cells/40 μl/well) cells were seeded in 384 well. Compounds were dissolved in DMSO, serially diluted in DMSO and then were added, mixed, and incubated for 4 hours at 37° C., 5% C02. Following the 4-hours incubation, cells were stimulated for 10 minutes with EGF (Invitrogen, cat #PHG0311) at a final concentration of 30 ng/mL in the incubator. The media was aspirated and cells were lysed in 10 μL lysis buffer with protease and phosphatase inhibitors (PerkinElmer, cat #ALSU-PEGFR-A50K). The plates were placed on a shaker for 5 μminutes and then incubated for 30 min at 4° C. for complete lysis. The lysate was transferred to an Optiplate (Perkin Elmer, cat #6007290).
Acceptor mix (PerkinElmer, cat #ALSU-PEGFR-A50K) was prepared just before use and 5 μL was dispensed to all the wells, followed by a 1.5-2 h incubation at room temperature in dark. The donor mix (PerkinElmer, cat #ALSU-PEGFR-A50K) was prepared under low light conditions prior to use and 5 μl of donor mix was added to all the wells under subdued lighting or green filters. The plates were placed on a shaker for 5 μmin, sealed, and incubated overnight at room temperature in dark. Plates were read on the Envision (PerkinElmer) using standard AlphaLISA settings.
The percentage of inhibition on EGFR phosphorylation was calculated following equation: % Inhibition=100×(LumHC−LumSample)/(LumHC−LumLC). The low and high controls (LC/HC) are generated from lysate from wells with cells treated with DMSO or […] Staurosporine (BioAustralis, cat #BIA-S1086), […]. IC50 values were calculated by fitting the Curve using XLfit (v5.3.1.3), equation 201: Y=Bottom+(Top−Bottom)/(1+10^((Log IC50−X)*HillSlope)).

T1 sequence (P04626 23-1255): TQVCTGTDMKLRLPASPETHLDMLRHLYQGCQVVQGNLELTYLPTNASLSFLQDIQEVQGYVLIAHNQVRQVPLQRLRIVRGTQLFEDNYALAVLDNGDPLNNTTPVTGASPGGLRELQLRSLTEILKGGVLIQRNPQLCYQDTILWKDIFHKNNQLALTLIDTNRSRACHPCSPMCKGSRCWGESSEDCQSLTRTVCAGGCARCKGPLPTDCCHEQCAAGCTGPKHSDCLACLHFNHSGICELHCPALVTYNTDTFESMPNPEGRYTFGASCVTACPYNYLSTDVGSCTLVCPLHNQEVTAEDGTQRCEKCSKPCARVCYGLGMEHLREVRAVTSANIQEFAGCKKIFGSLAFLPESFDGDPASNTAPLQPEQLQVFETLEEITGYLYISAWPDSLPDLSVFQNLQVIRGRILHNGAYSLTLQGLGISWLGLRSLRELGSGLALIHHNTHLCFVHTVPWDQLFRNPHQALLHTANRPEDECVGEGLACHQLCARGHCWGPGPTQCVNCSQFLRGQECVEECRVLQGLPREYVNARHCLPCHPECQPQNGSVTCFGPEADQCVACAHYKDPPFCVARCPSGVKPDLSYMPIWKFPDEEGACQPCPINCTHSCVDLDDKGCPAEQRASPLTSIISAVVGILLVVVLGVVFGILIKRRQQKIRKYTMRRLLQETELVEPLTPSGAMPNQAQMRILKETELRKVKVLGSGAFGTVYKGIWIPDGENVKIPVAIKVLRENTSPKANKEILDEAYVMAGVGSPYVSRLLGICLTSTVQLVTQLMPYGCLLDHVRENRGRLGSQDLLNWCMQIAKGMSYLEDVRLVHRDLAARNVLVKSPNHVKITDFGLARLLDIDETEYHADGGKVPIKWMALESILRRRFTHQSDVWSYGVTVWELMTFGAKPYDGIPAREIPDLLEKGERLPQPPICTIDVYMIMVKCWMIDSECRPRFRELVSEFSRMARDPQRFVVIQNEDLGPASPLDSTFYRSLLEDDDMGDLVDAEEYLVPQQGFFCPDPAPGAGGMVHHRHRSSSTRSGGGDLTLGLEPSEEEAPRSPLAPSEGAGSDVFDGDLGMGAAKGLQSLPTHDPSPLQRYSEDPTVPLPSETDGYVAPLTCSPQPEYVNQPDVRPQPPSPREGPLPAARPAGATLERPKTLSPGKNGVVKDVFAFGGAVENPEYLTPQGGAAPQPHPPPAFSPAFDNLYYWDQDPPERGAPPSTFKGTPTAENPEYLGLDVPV

SMILES: Cc1cc(Nc2ncnc3ccc4c(c23)OC[C@H]2CN(C)CCN42)ccc1Oc1ccc2c(c1)ncn2C [Compound 46, (R)-8-methyl-N-(3-methyl-4-((1-methyl-1H-benzo[d]imidazol-5-yl)oxy)phenyl)-6,6a,7,8,9,10-hexahydropyrazino[1′,2′:4,5][1,4]oxazino[2,3-f]quinazolin-4-amine]
- IC50 [1]: 22.3 nM
- IC50 [2]: > 10000 nM

SMILES: Cc1ccc(Oc2ccc(Nc3ncnc4cc5c(nc34)N3CCN(C)C[C@H]3CO5)cc2C)cn1 [Compound 73, (S)-3-methyl-N-(3-methyl-4-((6-methylpyridin-3-yl)oxy)phenyl)-1,2,3,4,4a,5-hexahydropyrazino[1,2-d]pyrimido[4′,5′:5,6]pyrido[3,2-b][1,4]oxazin-11-amine]
- IC50 [1]: 198 nM
- IC50 [2]: > 10000 nM

SMILES: Cc1cc(Nc2ncnc3ccc4c(c23)OC[C@H]2CCCCN42)ccc1Oc1ccn2ncnc2c1 [Compound 86, (R)—N-(4-([1,2,4]triazolo[1,5-a]pyridin-7-yloxy)-3-methylphenyl)-6,6a,7,8,9,10-hexahydropyrido[1′,2′:4,5][1,4]oxazino[2,3-f]quinazolin-4-amine]
- IC50 [1]: 40.7 nM
- IC50 [2]: > 10000 nM

SMILES: Cc1cc(Nc2ncnc3cc4c(cc23)N2CCNC[C@H]2CO4)ccc1Oc1ccc2c(c1)ncn2C [Compound 61, (S)—N-(3-methyl-4-((1-methyl-1H-benzo[d]imidazol-5-yl)oxy)phenyl)-1,2,3,4,4a,5-hexahydropyrazino[1′,2′:4,5][1,4]oxazino[3,2-g]quinazolin-11-amine]
- IC50 [1]: 118 nM
- IC50 [2]: > 10000 nM

SMILES: Cc1cc(Nc2ncnc3ccc4c(c23)OC[C@@H]2CN4CCN2C)ccc1Oc1ccc2c(c1)ncn2C [Compound 54, (3S)-4-methyl-N-(3-methyl-4-((1-methyl-1H-benzo[d]imidazol-5-yl)oxy)phenyl)-3,4,5,6-tetrahydro-2H-3,7-methano[1,4,7]oxadiazonino[2,3-f]quinazolin-13-amine]
- IC50 [1]: 82.1 nM
- IC50 [2]: > 10000 nM

SMILES: Cc1cc(Nc2ncnc3cc4c(nc23)N2CCN(C)C[C@H]2CO4)c(F)cc1Oc1ccn2ncnc2c1 [Compound 75, (S)—N-(4-([1,2,4]triazolo[1,5-a]pyridin-7-yloxy)-2-fluoro-5-methylphenyl)-3-methyl-1,2,3,4,4a,5-hexahydropyrazino[1,2-d]pyrimido[4′,5′:5,6]pyrido[3,2-b][1,4]oxazin-11-amine]
- IC50 [1]: 73.9 nM
- IC50 [2]: > 10000 nM

SMILES: Cc1cc(Nc2ncnc3cc4c(nc23)N2CCOC[C@H]2CO4)c(F)cc1Oc1ccn2ncnc2c1 [Compound 103, (S)—N-(4-([1,2,4]triazolo[1,5-a]pyridin-7-yloxy)-2-fluoro-5-methylphenyl)-1,2,4a,5-tetrahydro-4H-[1,4]oxazino[4,3-d]pyrimido[4′,5′:5,6]pyrido[3,2-b][1,4]oxazin-11-amine]
- IC50 [1]: 154 nM
- IC50 [2]: > 10000 nM

SMILES: Cc1cc(Nc2ncnc3cc4c(nc23)N2CCCC[C@H]2CO4)ccc1Oc1ccn2ncnc2c1 [Compound 68, (S)—N-(4-([1,2,4]triazolo[1,5-a]pyridin-7-yloxy)-3-methylphenyl)-1,2,3,4,4a,5-hexahydropyrido[1,2-d]pyrimido[4′,5′:5,6]pyrido[3,2-b][1,4]oxazin-11-amine]
- IC50 [1]: 55.5 nM
- IC50 [2]: > 10000 nM

SMILES: Cc1cc(Nc2ncnc3ccc4c(c23)OC[C@@H]2CN4CCO2)ccc1Oc1ccn2ncnc2c1 [Compound 72, (3S)—N-(4-([1,2,4]triazolo[1,5-a]pyridin-7-yloxy)-3-methylphenyl)-2,3,5,6-tetrahydro-3,7-methano[1,4,7]dioxazonino[5,6-f]quinazolin-13-amine]
- IC50 [1]: 417 nM
- IC50 [2]: > 10000 nM

SMILES: Cc1cc(Nc2ncnc3cc4c(nc23)N2CCN(C)C[C@@H]2CO4)ccc1Oc1ccn2ncnc2c1 [Compound 36, (R)—N-(4-([1,2,4]triazolo[1,5-a]pyridin-7-yloxy)-3-methylphenyl)-3-methyl-1,2,3,4,4a,5-hexahydropyrazino[1,2-d]pyrimido[4′,5′:5,6]pyrido[3,2-b][1,4]oxazin-11-amine]
- IC50 [1]: 234 nM
- IC50 [2]: > 10000 nM

SMILES: Cc1cc(Nc2ncnc3ccc4c(c23)OC[C@H]2CN4CCN2)ccc1Oc1ccc2c(c1)ncn2C [Compound 55, (3R)—N-(3-methyl-4-((1-methyl-1H-benzo[d]imidazol-5-yl)oxy)phenyl)-3,4,5,6-tetrahydro-2H-3,7-methano[1,4,7]oxadiazonino[2,3-f]quinazolin-13-amine]
- IC50 [1]: 108 nM
- IC50 [2]: > 10000 nM

SMILES: Cc1cc(Nc2ncnc3cc4c(nc23)N2CCN(C)C[C@@H]2CO4)ccc1Oc1ccc2c(c1)ncn2C [Compound 40, (R)-3-methyl-N-(3-methyl-4-((1-methyl-1H-benzo[d]imidazol-5-yl)oxy)phenyl)-1,2,3,4,4a,5-hexahydropyrazino[1,2-d]pyrimido[4′,5′:5,6]pyrido[3,2-b][1,4]oxazin-11-amine]
- IC50 [1]: 153 nM
- IC50 [2]: > 10000 nM

SMILES: Cc1cc(Nc2ncnc3cc4c(nc23)N2CC[C@H]2CO4)ccc1Oc1ccn2ncnc2c1 [Compound 70, (S)—N-(4-([1,2,4]triazolo[1,5-a]pyridin-7-yloxy)-3-methylphenyl)-1,2,2a,3-tetrahydroazeto[1,2-d]pyrimido[4′,5′:5,6]pyrido[3,2-b][1,4]oxazin-9-amine]
- IC50 [1]: 185 nM
- IC50 [2]: > 10000 nM

SMILES: Cc1cc(Nc2ncnc3ccc4c(c23)OC[C@@H]2CN4CCN2)ccc1Oc1ccc2c(c1)ncn2C [Compound 53, (3S)—N-(3-methyl-4-((1-methyl-1H-benzo[d]imidazol-5-yl)oxy)phenyl)-3,4,5,6-tetrahydro-2H-3,7-methano[1,4,7]oxadiazonino[2,3-f]quinazolin-13-amine]
- IC50 [1]: 541 nM
- IC50 [2]: > 10000 nM

SMILES: Cc1cc(Nc2ncnc3ccc4c(c23)OC[C@H]2CNCCN42)ccc1Oc1ccc2c(c1)ncn2C [Compound 45, (R)—N-(3-methyl-4-((1-methyl-1H-benzo[d]imidazol-5-yl)oxy)phenyl)-6,6a,7,8,9,10-hexahydropyrazino[1′,2′:4,5][1,4]oxazino[2,3-f]quinazolin-4-amine]
- IC50 [1]: 54 nM
- IC50 [2]: > 10000 nM

SMILES: Cc1cc(Nc2ncnc3cc4c(c(F)c23)N2CCN(C)C[C@H]2CO4)ccc1Oc1ccn2ncnc2c1 [Compound 66, (S)—N-(4-([1,2,4]triazolo[1,5-a]pyridin-7-yloxy)-3-methylphenyl)-12-fluoro-3-methyl-1,2,3,4,4a,5-hexahydropyrazino[1′,2′:4,5][1,4]oxazino[3,2-g]quinazolin-11-amine]
- IC50 [1]: 119 nM
- IC50 [2]: > 10000 nM

SMILES: Cc1c(Oc2ccn3ncnc3c2)ccc(Nc2ncnc3cc4c(nc23)N2CCOC[C@H]2CO4)c1F [Compound 102, (S)—N-(4-([1,2,4]triazolo[1,5-a]pyridin-7-yloxy)-2-fluoro-3-methylphenyl)-1,2,4a,5-tetrahydro-4H-[1,4]oxazino[4,3-d]pyrimido[4′,5′:5,6]pyrido[3,2-b][1,4]oxazin-11-amine]
- IC50 [1]: 257 nM
- IC50 [2]: > 10000 nM

SMILES: CC(=O)N1CCN2c3ccc4ncnc(Nc5ccc(Oc6ccn7ncnc7c6)c(C)c5)c4c3OC[C@H]2C1 [Compound 109, (R)-1-(4-((4-([1,2,4]triazolo[1,5-a]pyridin-7-yloxy)-3-methylphenyl)amino)-6a,7,9,10-tetrahydropyrazino[1′,2′:4,5][1,4]oxazino[2,3-f]quinazolin-8(6H)-yl)ethan-1-one]
- IC50 [2]: > 10000 nM
